Assays:
[1] = Retention time of the compound by HPLC analysis; format: physicochemical
[2] = Drug level in human liver S9 fraction treated with 50 uM E7016 after 60 mins in presence of NADP+ by LC-MS/MS method; format: ADME, subcellular; settings: s9, 1 h
Liver microsome [3] = assay: Drug level in dog liver microsomes treated with 10 uM ER-879819 after 60 mins in presence of NADH by LC-MS/MS method; format: ADME, Canis lupus familiaris; settings: 1 h
[4] = target: T1, Flavin-containing monooxygenase 5 (Homo sapiens, UniProt P49326); assay: Drug level assessed as human recombinant FMO5-mediated compound formation from 10 uM ER-879819 in presence NADH after 60 mins by LC-MS/MS method; format: ADME; settings: recombinant enzyme, 1 h
T1 sequence (P49326 whole entry): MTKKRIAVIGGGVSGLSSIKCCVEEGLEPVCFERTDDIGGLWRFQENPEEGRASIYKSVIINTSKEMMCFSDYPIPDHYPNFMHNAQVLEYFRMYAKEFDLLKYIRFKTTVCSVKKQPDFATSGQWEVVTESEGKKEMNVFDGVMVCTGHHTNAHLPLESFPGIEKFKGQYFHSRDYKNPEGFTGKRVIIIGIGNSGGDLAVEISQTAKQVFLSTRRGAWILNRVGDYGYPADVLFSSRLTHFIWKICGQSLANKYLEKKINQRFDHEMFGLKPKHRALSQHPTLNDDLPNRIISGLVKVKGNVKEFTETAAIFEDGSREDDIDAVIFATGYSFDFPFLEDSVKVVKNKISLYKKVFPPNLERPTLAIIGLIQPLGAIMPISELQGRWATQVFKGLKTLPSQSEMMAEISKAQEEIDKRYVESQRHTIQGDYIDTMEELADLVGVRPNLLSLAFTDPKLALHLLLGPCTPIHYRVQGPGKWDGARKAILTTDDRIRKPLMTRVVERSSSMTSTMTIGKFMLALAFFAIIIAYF

[5] = target: T1, Flavin-containing monooxygenase 5; assay: Drug metabolism assessed as human recombinant FMO5-mediated compound formation from 50 uM E7016 in presence of rat liver cytosolic fractions after 60 mins by LC-MS/MS method; format: ADME, tissue-based; settings: recombinant enzyme, 1 h
[6] = target: T1, Flavin-containing monooxygenase 5; assay: Drug metabolism assessed as human recombinant FMO5-mediated compound formation from 50 uM E7016 in presence of dog liver cytosolic fractions after 60 mins by LC-MS/MS method; format: ADME, tissue-based; settings: recombinant enzyme, 1 h
[7] = target: T1, Flavin-containing monooxygenase 5; assay: Drug level assessed as human recombinant FMO5-mediated compound formation from 10 uM ER-879819 in presence NADPH after 60 mins by LC-MS/MS method; format: ADME; settings: recombinant enzyme, 1 h
Hepatocyte [8] = assay: Drug level in rat hepatocytes treated with 50 uM E7016 after 120 mins in presence of NADPH by LC-MS/MS method; format: ADME, cell-based; settings: 2 h
[9] = Drug level in dog liver S9 fraction treated with 50 uM E7016 after 60 mins in presence of NADP+ by LC-MS/MS method; format: ADME, subcellular, Canis lupus familiaris; settings: s9, 1 h
[10] = Drug level in dog liver S9 fraction treated with 50 uM E7016 after 60 mins in presence of NAD+ by LC-MS/MS method; format: ADME, subcellular, Canis lupus familiaris; settings: s9, 1 h
Hepatocyte [11] = assay: Drug level in human hepatocytes treated with 50 uM E7016 after 120 mins in presence of NADPH by LC-MS/MS method; format: ADME, cell-based; settings: 2 h
[12] = target: T1, Flavin-containing monooxygenase 5; assay: Drug metabolism assessed as human recombinant FMO5-mediated compound formation from 50 uM E7016 in presence of human liver cytosolic fractions after 60 mins by LC-MS/MS method; format: ADME, tissue-based; settings: recombinant enzyme, 1 h
Liver microsome [13] = assay: Drug level in human liver microsomes treated with 10 uM ER-879819 after 60 mins in presence of NADH by LC-MS/MS method; format: ADME; settings: 1 h
[14] = Drug level in dog hepatocytes treated with 50 uM E7016 after 120 mins in presence of NADPH by LC-MS/MS method; format: ADME, cell-based, Canis lupus familiaris, Hepatocyte; settings: 2 h
[15] = Drug level in human liver S9 fraction treated with 50 uM E7016 after 60 mins in presence of NAD+ by LC-MS/MS method; format: ADME, subcellular; settings: s9, 1 h

Row | Retention_time [1] [min] | Drug metabolism [2] | Drug metabolism (Liver microsome [3]) | Drug metabolism [4] | Drug metabolism [5] | Drug metabolism [6] | Drug metabolism [7] | Drug metabolism (Hepatocyte [8]) | Drug metabolism [9] | Drug metabolism [10] | Drug metabolism (Hepatocyte [11]) | Drug metabolism [12] | Drug metabolism (Liver microsome [13]) | Drug metabolism [14] | Drug metabolism [15] | Structure (SMILES)
1 | 10.7 |  |  |  |  |  |  |  |  |  |  |  |  |  |  | Cc1ccc2c(c1)-c1n[nH]c(=O)c3cccc(c13)O2
2 |  | metabolite_detected | metabolite_detected | metabolite_detected | metabolite_detected | metabolite_detected | metabolite_detected | metabolite_detected | metabolite_detected | metabolite_detected | metabolite_detected | metabolite_detected | metabolite_detected | metabolite_detected | metabolite_detected | O=C(O)CCN(CCO)Cc1ccc2c(c1)-c1n[nH]c(=O)c3cccc(c13)O2

From ChEMBL document CHEMBL3525952, “A Baeyer-Villiger oxidation specifically catalyzed by human flavin-containing monooxygenase 5” (Drug Metab Dispos, 2011)
